Assay results taken from US20120100609A1, “N-LINKED GLYCAN BIOSYNTHESIS MODULATORS” (priority 2009, published 2012).

Tested on: N-linked glycans of CHO cells
Test: N-glycan profiling of treated CHO cells by normal phase HPLC (PNGaseF release, 2AB label)
Assay type: cell-based, Chinese Hamster
Details: CHO cells treated with compound, doses in uM
Protocol: N-linked glycans were purified from CHO cell cultures and different N-linked glycan structural peaks were separated by normal phase HPLC. For the analyses, cultured CHO cells were treated with and without the test compounds as described above and then harvested for N-glycan profiling. The spent medium was decanted and the cells were rinsed 3 times with PBS and detached with 5 mM EDTA/PBS. N-glycans were released from cells using PNGaseF (Prozyme, Cat# GKE-5006) as described by the manufacture. Released glycans were labeled with […] (2AB) (Sigma, Cat# A89804) as described by the manufacture. Non-incorporated 2AB was removed using a Discovery DPA-6S column. Briefly, the column was pre-equilibrated 2× with 1 ml 97% ACN. Samples were loaded by adding 1 ml 97% acetonitrile (ACN) to the reaction mix. The column was washed 4× with 1 ml 97% CAN. 2AB-labeled N-glycans were then eluted 2× with 0.6 ml water, dried in a vacuum centrifuge, resuspended and then analyzed by normal phase HPLC(NP-HPLC). Analogous experiments were run with Castanospermine for comparison. The results are illustrated in FIGS. 23-30. Purified 2AB-N-glycans were separated (NP-HPLC) on a 4.6×250 mm TSK Gel-Amide-80 column (Tosoh Bioscience). A gradient was run from 70% A to 50% A over 40 min at a flow rate of 1.2 ml/min (Solvent A: Acetonitrile, Solvent B: 50 mM ammonium formate pH4.4). Glucose units were determined based on 2AB-labeled glucose oligomer ladder (Prozyme). 2AB-labeled N-glycan standards (Prozyme) were run and assigned glucose units.

| Structure (SMILES) | specific N-linked glycan peaks of the HPLC profile (peak areas as % of the untreated Cntr peak area) |
| --- | --- |
| O[C@H]1[C@H](O)[C@@H](O)CN2CC[C@H](O)[C@H]12 [Castanospermine, reference compound] | N-glycan Profile Changes |
| Cc1ccc(NC(=O)c2c(NC(=O)c3cccnc3)sc3c2CCC3)cc1 [compound 10, N-(3-(p-tolylcarbamoyl)-5,6-dihydro-4H-cyclopenta[b]thiophen-2-yl)nicotinamide] | increases and decreases of specific peaks |
| COc1ccc(CN/C=C2\C(=O)N(c3nc4ccccc4s3)N=C2c2ccccc2)cc1 [compound 11] | increases and decreases of specific peaks |
| CCOc1cc(/C=C(\C#N)c2n[nH]c(N)c2C#N)ccc1O [compound 12, (Z)-5-amino-3-(1-cyano-2-(3-ethoxy-4-hydroxyphenyl)vinyl)-1H-pyrazole-4-carbonitrile] | increases and decreases of specific peaks |
